Source: patent US20110250292A1, “COMPOSITION FOR IMPROVING RA[…] CANCER” (CHONJISAN CO., LTD., priority 2008, published 2011)

Experiments:
[1] = oral dosage form; Z. X. Shen et al., Blood 89 (1997); cited from earlier work
[2] = system: Meth-A tumor (WEHI164 fibrosarcoma); assay: Irradiation and tetra-arsenic oxide treatment on Balb/c mouse having Meth-A tumor (tumor volume); assay type: in vivo; settings: 8 mg/kg once into abdominal cavity 1 hour after single local irradiation; 6 mice; FIG. 1; *p<0.05
Experimental: (§1) Balb/c, and Balb/c, nu/nu female mice (weight: 20 to 25 g, age: 6 to 8 weeks) were obtained from Orient bio (Taejun, Korea), and WEHI164 tumor cell line (derived from Meth-A-induced fibrosarcoma) and FaDu tumor cell line (derived from human nasopharyngeal squamous cell carcinoma) were bought from KCCB (Seoul, Korea). WEHI164 cells (5×10^5) or FaDu cells (1×10^6) in MEM 50 μl were hypodermically injected into a rear leg of a Balb/c or Balb/c nu/nu mouse, and then the growth of a tumor was observed.
(§2) Tetra-arsenic oxide obtained from Genew Science (Seoul, Korea) was placed in distilled water, and continuously stilled and dissolved. The resultant liquid was stored as a stock liquid at 4° C. The stock liquid was diluted with a phosphoric acid buffer solution in such a manner as to have a final concentration of 0.5 mg/ml.
In order to minimize acute arsenic toxicity, dextrose was added with a final concentration of 5% (F. X. Reichl, H. Kreppel, L. Szinicz, B. Fichtl, and W. Forth, Reduction of arsenic trioxide toxicity in mice by repeated treatment with glucose. Arch Toxicol Suppl 14 (1991) 225-7).
In irradiation, a cobalt-60 unit (Theratron 780; AECL, Kanata, Ontarino, Canada) was used. […]
A change in the tumor size was measured by calipers twice to three times per week. A tumor volume was calculated by a×b×h/2 (a=minimum length, b=maximum length, h=height). […]

[3] = system: human nasopharyngeal squamous cell carcinoma (FaDu); assay: Single irradiation and tetra-arsenic oxide treatment on Balb/c nu/nu mouse having human nasopharyngeal squamous cell carcinoma (tumor volume); assay type: in vivo; settings: FIGS. 2 and 3
Experimental: as §1, §2
(§3) In order to minimize acute arsenic toxicity, dextrose was added with a final concentration of 5% (F. X. Reichl, H. Kreppel, L. Szinicz, B. Fichtl, and W. Forth, Reduction of arsenic trioxide toxicity in mice by repeated treatment with glucose. Arch Toxicol Suppl 14 (1991) 225-7). […]
(§4) A tumor volume was measured twice to three times per week. The tumor size was measured by calipers, and the tumor volume was calculated by a×b×h/2 (a=minimum length, b=maximum length, h=height). […]

[4] = system: human nasopharyngeal squamous cell carcinoma (FaDu); assay: Fractional irradiation and tetra-arsenic oxide treatment on Balb/c nu/nu mouse having human nasopharyngeal squamous cell carcinoma (tumor volume); assay type: in vivo; settings: 8 mg/kg through abdominal cavity; fractional irradiation 12 Gy 4 times per week for 4 weeks; FIG. 3
Experimental: as §1, §2, §3, §4

[5] = M. J. Park et al., Int. J. Oncol. 22, 2003; cited from earlier work

Molecule | gastrointestinal toxicity on oral administration [1] | growth of tumor (tumor volume), combination with irradiation compared to irradiation alone [2] | tumor growth inhibition, separate treatment of tetra-arsenic oxide compared to control group ([3]; 8 mg/kg once through abdominal cavity, no irradiation) | tumor growth, combination with irradiation compared to irradiation alone ([3]; 8 mg/kg through abdominal cavity plus local irradiation) | radiosensitizer effect on tumor volume with fractional irradiation [4] | toxicity on oral administration [5]
arsenic trioxide | serious gastrointestinal toxicity |  |  |  |  | 
O1[As]2O[As]3O[As]1O[As](O2)O3 [tetra-arsenic oxide, 2,4,6,8,9,10-Hexaoxa-1,3,5,7-tetraarsatricyclo [3.3.1.1^3,7]decane] |  | significantly reduced the growth of tumor | hardly has an effect on tumor growth inhibition | significantly reducing tumor growth | significant effect as a radiosensitizer | very low toxicity
